Columns and labels:
[1] = molecular target: T1, EGFR (Homo sapiens, UniProt P00533); test: EGFR Kinase Assay; type: biochemical; conditions: for IC50: GST-EGFR, ATP 5 μM
T1 construct: The intracellular portion of EGFR started at nucleotide 2189 (corresponding to amino acid 667) and ended at the termination codon; made in house; host or cells: Sf9 insect cells (baculovirus)
Excerpt: The EGFR kinase used was a fusion of Glutathione-S-Transferase (GST) and a PCR amplified intracellular portion of EGFR (Accession Number NM_005228). The intracellular portion of EGFR started at nucleotide 2189 (corresponding to amino acid 667) and ended at the termination codon. The portion was PCR amplified with primers that added the lambda attB sequences to each end, recombined into an entry vector, then into a GST destination vector (as described in Gateway Technologies Manual by Invitrogen Corporation, Carlsbad, Calif.).
The destination vector was recombined in the DH10BAC strain of bacteria to produce a bacmid. The bacmid was transfected into Sf 9 cells and the supernatant containing the baculovirus was collected. The GSTEGFR protein was purified using large cultures of Sf 9 cells infected with stock virus. After an appropriate period of time, the cells were collected and lysed. The GSTEGFR was then purified from the lysate on Glutathione-Sepharose columns (as described by Amersham Biosciences, Buckinghamshire, United Kingdom).
The EGFR substrate was prepared by biotinylating polyGluTyr (128 mg) (Sigma, St. Louis, Mo.) in a 1×PBS buffer incubated together with a 12-fold molar excess of Sulfo-NHS-LC-Biotin on ice for at least 2 hrs. The free biotin was separated from the biotinylated polyGluTyr on a gel filtration column.
A mixture of a 10× kinase buffer (500 mM Tris at pH 8.0, 100 mM Magnesium Chloride and 1 mM Sodium Vanadate), DTT (1 mM final from 500 mM stock), ATP (5 μM final from 10 mM stock), biotinylated polyGluTyr (10 μg/μL stock), γ-^33P ATP (10 μCl/μL stock) and water was added to each well (for a total of 90 μL/well) of a Streptavidin Flashplate (Perkin Elmer, Wellesley, Mass.).
Test compound in 100% DMSO (2 μL) was added to the appropriate wells. Diluted GSTEGFR (1:300 dilution in 50 mM Tris at pH 8.0 and 0.1% bovine serum albumin) (10 μL) was added to the wells to initiate the reactions.
The plates were incubated at 30° C. for 1 hr with shaking. The reacted contents were removed and the plates were sequentially washed three times with a 1×PBS stop buffer (300 μL without Magnesium and Calcium) and 100 mM EDTA. After the final wash, the same stop buffer (200 μL) was added to the wells. The plates were then sealed and read on the TopCount scintillation counter.
Test compounds were assayed in triplicate at 16 concentrations at half-log dilutions starting at 200 uM. A maximum and minimum signal for the assay was determined on each plate. The percent inhibition of a test compound was calculated according to the formula: […]
For a series of test concentrations, the IC50 was derived by graphing percent inhibition against the log of the concentrations tested for a given compound. For those compounds without an IC50, the inhibition values in percent are shown at a test concentration of 2 μM. For compounds with multiple values, each value represents a separate assay result.

[2] = molecular target: T2, HER-2 (Homo sapiens, UniProt P04626); test: HER-2 Kinase Assay; type: biochemical; conditions: for inhibition at 1 µM: test concentration of 1 μM; for IC50: value in parentheses
T2 construct: His6 with thrombin site (N); purchased Proqinase (Freiburg, Germany)
T2 sequence (P04626 679-1255): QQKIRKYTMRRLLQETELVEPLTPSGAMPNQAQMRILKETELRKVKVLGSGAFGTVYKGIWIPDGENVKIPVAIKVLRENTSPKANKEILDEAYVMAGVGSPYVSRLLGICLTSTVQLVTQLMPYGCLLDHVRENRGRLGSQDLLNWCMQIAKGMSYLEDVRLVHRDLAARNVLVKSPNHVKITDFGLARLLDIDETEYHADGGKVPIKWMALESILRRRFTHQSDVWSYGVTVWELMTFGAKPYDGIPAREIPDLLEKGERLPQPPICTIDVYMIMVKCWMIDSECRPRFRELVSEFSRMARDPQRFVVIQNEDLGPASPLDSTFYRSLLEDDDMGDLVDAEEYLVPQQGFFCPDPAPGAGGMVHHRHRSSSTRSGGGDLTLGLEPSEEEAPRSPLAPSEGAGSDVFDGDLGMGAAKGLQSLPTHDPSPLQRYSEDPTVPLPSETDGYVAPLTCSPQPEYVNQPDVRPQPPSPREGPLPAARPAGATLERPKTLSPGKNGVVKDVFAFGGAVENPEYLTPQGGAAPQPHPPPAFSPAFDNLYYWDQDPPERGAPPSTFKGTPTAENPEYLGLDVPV
Method: The HER-2 kinase used was purified at Proqinase (Freiburg, Germany) from a construct that consisted of a fusion of GST (Glutathione-S-Transferase), HIS6-Thrombin and the nucleotides encoding amino acids 679 to 1255 of HER-2 (Accession Number M11730).
A mixture of a 10× kinase reaction buffer (600 mM Hepes at pH 7.5, 30 mM Magnesium Chloride, 0.03 mM Sodium Vanadate and 500 μg/mL PEG 20,000), DTT (1.2 mM final from a 10 mM stock), APT (1 μM from a 10 mM stock), biotinylated polyGluTyr (1.5 ng/μL final from stock of 1 μg/μL) prepared by Upstate Biotechnologies, Lake Placid, N.Y.), Manganese Chloride (3 mM final from a 1 M stock), γ-^33P-ATP (10 μCl/μL stock) and water (70 μL/well) was added to each well of a Streptavidin Flashplate (Cat. # SMP103, NEN, Boston, Mass.).
Test compound stock (1 μL) was added to the appropriate wells. Diluted GSTHER2 kinase (6.7 ng/μL diluted into 50 mM Tris-HCl at pH 8.0 and 0.1% bovine serum albumin) (30 μL) was added (total volume of 200 ng/well) to initiate the reactions.
The reaction plates were incubated at 30° C. for 1 hr. The reaction was terminated by aspirating the reaction mixture from the plate wells and washing the wells three times with a 1×PBS stop buffer (300 μL) and 100 mM EDTA. After the final wash, the same stop buffer (200 μL) was again added to the wells. The plates were then sealed and read on the TopCount scintillation counter.
The Her-2 inhibition values were derived according to the procedure described in Example 164 and are shown as percent in Table 4 at a test concentration of 1 μM. For those compounds with an IC50, the IC50 value in μM is shown in parentheses. For compounds with multiple test values, each value represents a separate assay result.

T1 sequence (P00533 669-1210 limits assumed): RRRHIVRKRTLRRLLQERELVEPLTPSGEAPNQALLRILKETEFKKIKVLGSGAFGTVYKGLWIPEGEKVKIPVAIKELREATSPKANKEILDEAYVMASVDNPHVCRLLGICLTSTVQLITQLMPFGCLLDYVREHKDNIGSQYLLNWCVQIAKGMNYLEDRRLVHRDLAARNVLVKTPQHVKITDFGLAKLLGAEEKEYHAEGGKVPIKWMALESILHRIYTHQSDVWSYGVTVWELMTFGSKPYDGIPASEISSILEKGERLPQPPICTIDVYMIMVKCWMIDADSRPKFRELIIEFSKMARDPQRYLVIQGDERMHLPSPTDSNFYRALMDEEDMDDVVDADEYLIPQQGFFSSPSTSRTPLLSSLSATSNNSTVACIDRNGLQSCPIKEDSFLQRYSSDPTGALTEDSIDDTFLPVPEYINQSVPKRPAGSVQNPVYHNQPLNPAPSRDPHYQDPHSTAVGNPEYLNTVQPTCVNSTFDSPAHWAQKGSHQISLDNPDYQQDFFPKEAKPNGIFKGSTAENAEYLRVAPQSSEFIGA

IC50 [1] [nM]	inhibition at 1 µM [2] [%]	IC50 [2] [nM]	inhibition at 2 µM ([1]; test concentration of 2 μM, compounds without an IC50, read-out: EGFR inhibition in percent) [%]	Compound
7	69			O=C(Nc1ccc(CN2CCCC2)cc1)c1sc2ncnc3c2c1NC(=O)N3c1ccc(F)c(Cl)c1 [Cpd 7, 5-(3-chloro-4-fluoro-phenyl)-4-oxo-4,5-dihydro-3H-1-thia-3,5,6,8-tetraaza-acenaphthylene-2-carboxylic acid (4-pyrrolidin-1-ylmethyl-phenyl)-amide]
41	40	804		O=C(Nc1ccc(CN2CCOCC2)cc1)c1sc2ncnc3c2c1NC(=O)N3c1ccc(F)c(Cl)c1 [Cpd 13, 5-(3-chloro-4-fluoro-phenyl)-4-oxo-4,5-dihydro-3H-1-thia-3,5,6,8-tetraaza-acenaphthylene-2-carboxylic acid (4-morpholin-1-ylmethyl-phenyl)-amide]
43	-1			CN1CCN(Cc2ccc(NC(=O)c3sc4ncnc5c4c3NC(=O)N5c3ccc(F)c(Cl)c3)cc2)CC1 [Cpd 14, 5-(3-chloro-4-fluoro-phenyl)-4-oxo-4,5-dihydro-3H-1-thia-3,5,6,8-tetraaza-acenaphthylene-2-carboxylic acid [4-(4-methyl-piperazin-1-ylmethyl)-phenyl]-amide]
26	21			C#Cc1cccc(N2C(=O)Nc3c(C(=O)Nc4ccc(CN5CCCC5)cc4)sc4ncnc2c34)c1 [Cpd 15, 5-(3-ethynyl-phenyl)-4-oxo-4,5-dihydro-3H-1-thia-3,5,6,8-tetraaza-acenaphthylene-2-carboxylic acid (4-pyrrolidin-1-ylmethyl-phenyl)-amide]
168		768		O=C(Nc1ccc(CN2CCCCC2)cc1)c1sc2ncnc3c2c1NC(=O)N3c1ccc(Cl)cc1Cl [Cpd 25, 5-(2,4-dichloro-phenyl)-4-oxo-4,5-dihydro-3H-1-thia-3,5,6,8-tetraaza-acenaphthylene-2-carboxylic acid (4-piperidin-1-ylmethyl-phenyl)-amide]
873		884		O=C(Nc1ccc(CN2CCOCC2)cc1)c1sc2ncnc3c2c1NC(=O)N3c1ccc(Cl)cc1Cl [Cpd 29, 5-(2,4-dichloro-phenyl)-4-oxo-4,5-dihydro-3H-1-thia-3,5,6,8-tetraaza-acenaphthylene-2-carboxylic acid (4-morpholin-4-ylmethyl-phenyl)-amide]
524	11			COc1ccc(N2C(=O)Nc3c(C(=O)Nc4ccc(CN5CCCCC5)cc4)sc4ncnc2c34)c(F)c1 [Cpd 66, 5-(2-fluoro-4-methoxy-phenyl)-4-oxo-4,5-dihydro-3H-1-thia-3,5,6,8-tetraaza-acenaphthylene-2-carboxylic acid (4-piperidin-1-ylmethyl-phenyl)-amide]
690	-8			COc1ccc(N2C(=O)Nc3c(C(=O)Nc4ccc(OCC5CCCCO5)c(OC)c4)sc4ncnc2c34)c(F)c1 (stereo not drawn) [Cpd 68, 5-(2-fluoro-4-methoxy-phenyl)-4-oxo-4,5-dihydro-3H-1-thia-3,5,6,8-tetraaza-acenaphthylene-2-carboxylic acid [3-methoxy-4-(tetrahydro-pyran-2-ylmethoxy)-phenyl]-amide]
970	-3			COc1ccc(N2C(=O)Nc3c(C(=O)Nc4ccc(OC)c(OC)c4)sc4ncnc2c34)c(F)c1 [Cpd 69, 5-(2-fluoro-4-methoxy-phenyl)-4-oxo-4,5-dihydro-3H-1-thia-3,5,6,8-tetraaza-acenaphthylene-2-carboxylic acid (3,4-dimethoxy-phenyl)-amide]
	4		57	COc1ccc(Cl)cc1N1C(=O)Nc2c(C(=O)Nc3ccc(CN4CCCCC4)cc3)sc3ncnc1c23 [Cpd 72, 5-(5-chloro-2-methoxy-phenyl)-4-oxo-4,5-dihydro-3H-1-thia-3,5,6,8-tetraaza-acenaphthylene-2-carboxylic acid (4-piperidin-1-ylmethyl-phenyl)-amide]

From US7579356B2, “Thia-tetraazaacenaphthylene kinase inhibitors” (Janssen Pharmaceutica NV, priority 2005, dated 2009)
